Source: paper PMC4063187 (Journal of the American Chemical Society, 2014)
Where two headings read alike, the source gives them in different places. Blank lines part the entries; values can stand above or below the compound they belong to.

Experiments:
[1] = target: T1, ecDHFR (wild-type, l-DHFR) (Escherichia coli, UniProt P0ABQ4); experiment: stopped-flow tryptophan fluorescence quenching, koff/kon; assay type: binding
T1 sequence (P0ABQ4 1-159): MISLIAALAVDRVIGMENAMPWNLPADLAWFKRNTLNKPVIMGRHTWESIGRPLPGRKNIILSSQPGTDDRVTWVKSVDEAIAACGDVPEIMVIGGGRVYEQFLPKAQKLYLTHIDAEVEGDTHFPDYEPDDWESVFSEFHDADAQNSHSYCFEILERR

[2] = target: T1, ecDHFR (wild-type, l-DHFR); experiment: steady-state absorbance at […] nm; assay type: biochemical; conditions: read-out: 25 °C, pH 7 / l-DHFR, MTEN buffer pH 7, 25 °C
[3] = target: T1, ecDHFR (wild-type, l-DHFR); experiment: stopped-flow fluorescence; assay type: binding

- Kd [1]: 3220 ± 90 nM
Structure (SMILES): Nc1nc2ncc(CNc3ccc(C(=O)N[C@@H](CCC(=O)O)C(=O)O)cc3)nc2c(=O)[nH]1 [FA]

- Km ([2]; 100 μM NADPH): 0.53 ± 0.04 µM
Structure (SMILES): Nc1nc2c(c(=O)[nH]1)N=C(CNc1ccc(C(=O)N[C@@H](CCC(=O)O)C(=O)O)cc1)CN2 [DHF]

- Kd [3]: 180 ± 90 nM
- Km ([2]; 100 μM DHF): 7.2 ± 0.8 µM
Structure (SMILES): NC(=O)C1=CN([C@@H]2O[C@H](COP(=O)(O)OP(=O)(O)OC[C@H]3O[C@@H](n4cnc5c(N)ncnc54)[C@H](OP(=O)(O)O)[C@@H]3O)[C@@H](O)[C@H]2O)C=CC1 [NADPH]
